{"source": "patent US6395787B1", "about": "“Ocular hypotensive lipids” (Allergan Sales, Inc., priority 2000, dated 2002)", "key": {"[1]": {"molecular_target": "recombinant feline FP receptor (Felis catus, UniProt A0ABI7XJ69)", "sequence (A0ABI7XJ69 entry or part of it)": "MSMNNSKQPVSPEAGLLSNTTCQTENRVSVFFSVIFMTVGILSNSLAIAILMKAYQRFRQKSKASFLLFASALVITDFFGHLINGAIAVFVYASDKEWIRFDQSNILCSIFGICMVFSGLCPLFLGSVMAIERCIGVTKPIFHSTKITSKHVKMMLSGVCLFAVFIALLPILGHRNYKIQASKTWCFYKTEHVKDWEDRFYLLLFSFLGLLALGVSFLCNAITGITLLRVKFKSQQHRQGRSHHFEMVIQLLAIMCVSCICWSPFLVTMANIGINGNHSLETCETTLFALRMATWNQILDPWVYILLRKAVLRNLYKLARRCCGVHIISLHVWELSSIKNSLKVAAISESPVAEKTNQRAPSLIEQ", "experiment": "Ca2+ signal in HEK-293 cells stably transfected with recombinant feline FP receptor", "format": "cell-based, cat", "conditions": "for Δ[Ca^2+]i mean χ ± SEM: n = 3", "procedure": "Human CRL 1497 cells were plated in culture flasks and fed Dulbecco's modified Eagle's medium (DMEM) containing 10% fetal calf serum, 2 mM 1-glutamine, and 0.05 mg/ml gentacin (all purchased from Gibco, Grand Island, N.Y.). Cell cultures were maintained in a humidified atmosphere of 95% air, 5% CO2 and grown to confluency. Cells were removed from the culture flasks by approximately 1 min treatment with trypsin 0.05%/0.53 mM EDTA in Hanks Balanced Salt Solution (HBSS, Gibco, Grand Island, N.Y.) at 37° C. Proteolytic activity was arrested by adding 5 ml of 10% fetal bovine serum in DMEM. The cells were consecutively washed in Hank's BSS and medium containing 140 mM NaCl, […], 1 mM MgCl2, 1.5 mM CaCl2, 10 mM HEPES: TRIS, 5 mM glucose, 5 mM Na pyruvate, 0.1% bovine serum albumin at pH 7.4: Centrifugation for the washes was performed for 15 minutes at 200 g at room temperature. Cells were counted, resuspended in the above medium and incubated with 2×10^−6 M Fura 2/acetoxymethyl ester in a shaking water bath for 30 minutes at 37° C. The cells were subsequently washed in medium as above and resuspended at a concentration of 2×10^6 cells ml^−1. Aliquots of 0.5 ml cell suspension were then added to autocap microtubes to provide 10^6 cells per experimental determination of intracellular free Ca^2+ concentration ([Ca^2+]i).\nFluorescence was measured in a Perkin-Elmer LS-5 fluorescence spectrophotometer at excitation and emission wavelengths of 340 and 492 nm, respectively, with both slits at 10 nm. For each experimental determination 10^6 cells were washed (200×g for 5 min) and suspended in a 2 ml cuvette with buffer containing 120 mM NaCl, 6 mM KCl, 1 mM MgSO4, 1.5 mM CaCl2, 20 mM HEPES, 1 mg ml^−1 glucose and 1 mg ml^−1 Na pyruvate. Stirring was achieved by an overhead-mounted, paddle stirrer with the temperature maintained at 37° C. The cells were lysed with digitonin (10 μl of 100 mg ml^−1 DMSO) to obtain fmax. EGTA (100 mM) and sufficient 10N NaOH to adjust the pH to 8.5 were then successively added to obtain fmin.\nHEK-293 cells were grown in DMEM with 10% fetal bovine serum (FBS), 250 μg ml^−1 G418 (Life Technologies) and 200 μg ml^−1 gentamicin or penicillin/streptomycin. […] For transfection, the cells were grown to 50-60% confluency on 10 cm plates. The plasmid pCEP4 incorporating cDNA inserts for the human FP receptor (20 μg) was added to 500 μl of 250 mM CaCl2. HEPES buffered saline×2 (2×HBSS, 280 mM NaCl, 20 mM HEPES acid, 1.5 mM Na2 HPO4, pH 7.05-7.12) was then added dropwise to a […], with continuous vortexing at room temperature. After 30 min, 9 ml DMEM were added to the mixture. The DNA/DMEM/calcium phosphate mixture was then added to the cells, which had been previously rinsed with 10 ml phosphate buffered saline (PBS). The cells were then incubated for 5 h. at 37° C. in humidified 95% air/5% CO2. The calcium phosphate solution was then removed and the cells were treated with 10% glycerol in DMEM for 2 min. The glycerol solution was then replaced by DMEM with 10% fetal bovine serum (FBS). The cells were incubated overnight and the medium was replaced by DMEM/10% FBS containing 250 μg ml^−1 G418 and penicillin/streptomycin. The following day hygromycin B was added to a final concentration of 200 μg ml^−1.\nTen days after transfection, hygromycin B resistant clones were individually selected and transferred to a separate well on a 24 well plate. […]"}, "[2]": {"tested_on": "dog ocular surface hyperemia", "experiment": "Dog ocular surface hyperemia", "format": "in vivo", "design": "key: <1 trace 0.5; 1 mild 1; moderate 2; severe 3", "conditions": "throughout the 24 hr experimental period, trace for vehicle", "procedure": "Ocular surface hyperemia was visually assessed and scored according to a system typically used clinically.\nOcular surface hyperemia was evaluated at the same time points as intraocular pressure measurement. It should be noted that untreated dog eyes frequently have a pink/red tone. Thus, values of trace or even mild are not necessarily out of the normal range."}}, "data": [{"smiles": "CCCCC[C@H](O)/C=C/[C@@H]1[C@@H](C/C=C\\CCCC(=O)NCCO)[C@@H](O)C[C@H]1O", "note": "[PGF2α 1-ethanolamide, (5Z,8α,9α,11α,13E,15S)-9,11,15-trihydroxy-N-(2-hydroxyethyL)prosta-5,13-dien-1-amide]", "values": [{"measurement": "Δ[Ca^2+]i mean χ ± SEM", "setting": "[1]; 10^−9 M", "value": "22.2 ± 6.4"}, {"measurement": "Δ[Ca^2+]i mean χ ± SEM", "setting": "[1]; 10^−10 M", "value": "6.5 ± 5.0"}, {"measurement": "difference in potency vs PGF2α", "setting": "[1]; HEK-293 cells, recombinant feline FP receptor, Ca2+ signal", "value": "approximately 100 fold"}, {"measurement": "EC50", "setting": "[1]; HEK-293 cells, recombinant feline FP receptor, read-out: E.C.50, Ca2+ signal", "value": 1.46, "unit": "µM"}, {"measurement": "ocular surface hyperemia", "setting": "[2]", "value": "mild"}]}]}
